Data reported in article PMC5546478 (Oncotarget, 2017).
Entries after “also recorded” stand apart in the source; their conditions may differ. Counter-ions that a name gives are not always drawn. Like-named read-outs stand apart in the source and are kept apart here.

How the values were obtained:
mutant IDH1 = conditions: cited from earlier work
WT IDH1 = molecular target: T1, WT IDH1 (Homo sapiens, UniProt O75874); experiment: In vitro enzyme inhibition assay, WT IDH1 (NADPH production); assay type: biochemical; conditions: for IC50 / IC50 for enzyme activities, WT: n.p = no clear inhibitory detected; for IC50: read-out: IC50 for enzyme activities, WT
T1 construct: made in house
T1 sequence (O75874 whole entry): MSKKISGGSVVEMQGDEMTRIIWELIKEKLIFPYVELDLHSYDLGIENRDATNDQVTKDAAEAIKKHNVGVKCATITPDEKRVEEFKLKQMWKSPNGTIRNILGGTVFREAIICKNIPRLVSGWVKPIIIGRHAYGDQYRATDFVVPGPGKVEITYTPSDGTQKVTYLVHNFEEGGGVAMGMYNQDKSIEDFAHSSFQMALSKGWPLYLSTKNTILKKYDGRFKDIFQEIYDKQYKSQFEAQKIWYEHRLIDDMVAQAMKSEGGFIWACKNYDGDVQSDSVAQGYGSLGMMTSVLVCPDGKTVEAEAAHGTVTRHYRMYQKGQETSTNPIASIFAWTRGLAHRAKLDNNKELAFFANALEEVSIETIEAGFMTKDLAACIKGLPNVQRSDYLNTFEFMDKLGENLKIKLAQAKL
Experimental: For inhibition assay, firstly, triplicate samples of compounds were incubated with the protein for 5 min.

HT1080 xenograft = experiment: Antitumor efficacy in HT1080 xenograft mouse model; assay type: in vivo, CB-17/Icr-scid mice; conditions: for Tumor weight: after 2 weeks' treatment, control 2.32 ± 0.93 g; for Tumor volume: model 1879.61±244.35
Excerpt: In the xenograft model, HT1080 cells were inoculated subcutaneously into the right flank of male CB-17/Icr-scid mice.

[1] = test system: mutant IDH1 (D-2HG production); experiment: D-2HG concentrations in tumors and serum of HT1080 xenograft mice; assay type: in vivo, CB-17/Icr-scid mice; conditions: for percentage inhibition of D-2HG production in tumor tissue: normalized to control group; for R-2HG level in serum: model 5.97 ±2.58; for R-2HG level in tumor tissue: model 364.01 ±118.43
[2] = 50 and 100 mg/kg per day via gavage
Experimental: After 2 weeks’ treatment, all mice were then scarified and the average tumor weights were calculated.
CB-17/Icr-scid mice (male, 4 weeks old) were purchased from HFK Bioscience CO., LTD (Beijing, China). The animals were maintained under ‘specific pathogen-free’ conditions according to the guidelines established by Research Animal Resources, Laboratory Animal Center, Huazhong University of Science and Technology (Wuhan, China). […] HT1080 cells were inoculated subcutaneously (2 × 10^6 cells) into the right flank of each mouse in the three groups. Treatment was started after seven days of cells injection. […] For the vehicle group, 200 μL normal saline was administered to each mouse every day by i.g. The duration of the animal study was 22 days for HT1080 cells. The tumor volume was calculated from measurements of 3 diameters of the individual tumor based on the following formula: tumor volume (mm^3) = (length × width × height × 0.52). The mice were monitored until tumors reached 1 cm^3 total volume, at which time the mice were euthanized and the tumors were extracted.

H3K9me3 in HT1080 cells [3] = experiment: Immunocytochemical staining of H3K9me3; assay type: cell-based, human
Experimental: We seeded the cells at 2×10^5 per well (Lab-Tek II chamber slide, Nalgen Nunc International, Naperville, IL). 48 hours after incubation, cells were fixed with PBS (−) containing 4% paraformaldehyde for 15 minutes, and rendered permeable with PBS (−) containing 0.1% Triton X-100 at 4 °C for 2.5 minutes. Subsequently, the cells were covered with 3% bovine serum albumin in PBS (−) at 4 °C for 12 hours to block nonspecific hybridization followed by incubation with an H3K9me3 antibody diluted at 1:100. After washing with PBS (−), the cells were stained by an Alexa 594-conjugated anti-mouse secondary antibody (Molecular Probes, Eugene, OR) diluted at 1: 1,000. Nuclei were counterstained with (DAPI). Fluorescent images were obtained under a TCS SP2 AOBS microscope (Leica, Tokyo, Japan).

HT1080 cells = experiment: Flow cytometric analysis for apoptosis (Annexin V/PI); assay type: cell-based, human; conditions: control 2%
Experimental: Then the cells were harvested, washed twice with ice-cold PBS, and mixed in 100 μL of 1 × binding buffer (10 mM HEPES/NaOH, pH 7.4, 140 mM NaCl, 2.5 mM CaCl2). After culturing for 15 min at room temperature in Annexin-V/PI (Nanjing KeyGen Biotech. Inc.) double staining liquid, the cells were examined by flow cytometry (BD Biosciences, FACSCalibur).

[4] = test system: H3K9me3 in HT1080 tumor tissue; experiment: Immunohistochemistry for H3K9me3 in xenograft tumor tissues; assay type: in vivo, CB-17/Icr-scid mice; conditions: clomifene treated groups (50, 100 mg/kg) vs vehicle
Experimental: We then examined D-2HG concentrations in tumors and serum.
HT1080 cells were inoculated subcutaneously (2 × 10^6 cells) into the right flank of each mouse in the three groups. Treatment was started after seven days of cells injection. […] For the vehicle group, 200 μL normal saline was administered to each mouse every day by i.g. The duration of the animal study was 22 days for HT1080 cells. The tumor volume was calculated from measurements of 3 diameters of the individual tumor based on the following formula: tumor volume (mm^3) = (length × width × height × 0.52). The mice were monitored until tumors reached 1 cm^3 total volume, at which time the mice were euthanized and the tumors were extracted. The tumors were dissected and sent for immunohistochemical analysis and western blot analysis.

H3K9me3 in HT1080 cells [5] = experiment: Histone methylation H3K9me3 by western blot; assay type: cell-based, human; conditions: 48 hours
Experimental: The harvested cells were lysed with lysis buffer (50 mM Tris-HCl (pH 7.4), 150 mM NaCl, 1 mM EDTA, 1 mM EGTA, 10 mg/mL aprotinin, 10 mg/mL leupeptin, 5 mM phenylmethanesulfonyluoride (PMSF), 1 mM dithiolthreitol (DTT) containing 1% Triton X-100). Insoluble debris was removed by centrifugation at 13000 rpm for 20 minutes, and the content of protein was determined using Bradford reagent (Bio-Rad, USA). Lysate protein (20-40 μg) was subjected to 12% SDS-PAGE and electrophoretically transferred to polyvinylidene difluoride membranes (PVDF) (Millipore, USA). The membranes were blocked with 5% non-fat milk for 1 h and then incubated with the respective specific primary antibody at 4 °C overnight. Protein bands were visualized using an enhanced chemiluminescence reagent (ECL Plus) (GE Healthcare, USA) after hybridization with a HRP conjugated secondary antibody. Band density was quantified using the Image J software program (NIH).

For `Cc1ccccc1C(C(=O)NC1CCCCC1)N(C(=O)Cn1ccnc1C)c1cccc(F)c1` (centres unmarked) [AGI-5198], the “kinetic mechanism with respect to NADPH” value (mutant IDH1; mutant IDH1) is given as “uncompetitive”, the “kinetic mechanism with respect to α-KG” value (mutant IDH1; mutant IDH1) is given as “competitive inhibitor” and the IC50 (WT IDH1) is given as > 200 µM.

For `COc1ccc(-c2ccc3cc(C(=O)O)ccc3c2)cc1C12CC3CC(CC(C3)C1)C2` [Adapalene], the “IC50 for enzyme activities, WT” value (WT IDH1) was “n.p”.

For `CCCNCC(O)COc1ccccc1C(=O)CCc1ccccc1` (centres unmarked) [Propafenone Hydrochloride], the “IC50 for enzyme activities, WT” value (WT IDH1) was “n.p”.

In the case of `CC(C)(C)CC(C)(C)c1cc(Cn2ccnc2)c(O)c(Cn2ccnc2)c1` [2,6-bis (1H-imidazol-1-ylmethyl)-4-(2,4,4-trimethylpentan-2-yl) phenol], the “manner of inhibition of mutant IDH1” value (mutant IDH1; ligand of crystal structure 4UMX, binds allosteric site) is given as “non-competitive and allosteric inhibitor”.

For `CCN(CC)CCOc1ccc(C(=C(Cl)c2ccccc2)c2ccccc2)cc1` [Clomifene], the “percentage inhibition of tumor volume” value (HT1080 xenograft; 50 mg/kg per day via gavage) was 51.71%, the “percentage inhibition of tumor weight” value (HT1080 xenograft; 50 mg/kg per day via gavage) was 38.36% and the Tumor weight (HT1080 xenograft; 50 mg/kg per day via gavage) was 1.43 ± 0.42 g. The “percentage inhibition of tumor weight” value (HT1080 xenograft; 50 mg/kg per day via gavage, listed as clomifene) was “about 60%”, the Tumor volume (HT1080 xenograft; 50 mg/kg per day via gavage) was 907.73±176.63 mm3 and the “percentage inhibition of tumor volume” value (HT1080 xenograft; 100 mg/kg per day via gavage) was 65.80%. The “percentage inhibition of tumor weight” value (HT1080 xenograft; 100 mg/kg per day via gavage) was 59.48%, the Tumor weight (HT1080 xenograft; 100 mg/kg per day via gavage) was 0.94 ± 0.61 g and the Tumor volume (HT1080 xenograft; 100 mg/kg per day via gavage) was 642.91±127.02 mm3. The “tumor growth of HT1080-bearing mice” value (HT1080 xenograft; oral 100 mg/kg and 50 mg/kg per day) was “significantly suppressed”, the “percentage inhibition of R-2HG in serum” value ([1]; 50 mg/kg) was 51.59% and the “percentage inhibition of D-2HG production in tumor tissue” value ([1]; 50 mg/kg) was 23.81%. The “R-2HG level in serum” value ([1]; 50 mg/kg) was 2.89 ± 1.06 µM, the “R-2HG level in tumor tissue” value ([1]; 50 mg/kg) was 277.34 ± 78.03 µg/g and the “percentage inhibition of D-2HG production in tumor tissue” value ([1]; 100 mg/kg) was 57.38%. For the same molecule, the “R-2HG level in serum” value ([1]; 100 mg/kg) was 1.47 ± 1.38 µM, the “R-2HG level in tumor tissue” value ([1]; 100 mg/kg) was 155.12 ± 74.34 µg/g and the “effect on mouse body weight” value [2] was “no effect”. For the same molecule, the “effect on mouse body weight” value ([2]; listed as clomifene) was “no obvious side effects on animals’ growth”, the “mutant IDH1-mediated H3K9me3” value (H3K9me3 in HT1080 cells [3]) was “substantially and dose-dependently decreased” and the apoptotic death (HT1080 cells; 10 μM) was 12.88%. The apoptotic death (HT1080 cells; 20 μM) was 23.61%, the “Effect on WT IDH1” value (WT IDH1; at 200 μM) was “did not obviously alter” and the IC50 (WT IDH1) was > 200 µM. For the same molecule, the “expressions of H3K9me3 in tumor tissues” value [4] was “substantially reduced” and the “level of histone methylation (H3K9me3)” value (H3K9me3 in HT1080 cells [5]) was “significantly reduced; also recorded: markedly decrease”.

With `CO[C@@]1(NC(=O)Cc2cccs2)C(=O)N2C(C(=O)O)=C(COC(N)=O)CS[C@@H]21` [Cefoxitin sodium] the IC50 (WT IDH1) was > 200 µM.

With `O=C(NC[C@H]1CN(c2ccc(N3CCOCC3=O)cc2)C(=O)O1)c1ccc(Cl)s1` [Rivaroxaban] the IC50 (WT IDH1) was > 200 µM.

For `OC(Cn1cncn1)(Cn1cncn1)c1ccc(F)cc1F` [Fluconazole], the “IC50 for enzyme activities, WT” value (WT IDH1) was “n.p”.

In the case of `CN(C)[C@@H]1C(O)=C(C(N)=O)C(=O)[C@@]2(O)C(O)=C3C(=O)c4c(O)ccc(Cl)c4[C@@H](O)[C@H]3C[C@@H]12` [Demeclocycline], the “IC50 for enzyme activities, WT” value (WT IDH1) is reported as “n.p^e”.

In the case of `C=C1c2cccc(O)c2C(=O)C2=C(O)[C@]3(O)C(=O)C(C(N)=O)=C(O)[C@@H](N(C)C)[C@@H]3[C@@H](O)[C@H]12` [Metacycline], the “IC50 for enzyme activities, WT” value (WT IDH1) is reported as “n.p”.

For `CN(C)c1cc(NC(=O)CNC(C)(C)C)c(O)c2c1C[C@H]1C[C@H]3[C@H](N(C)C)C(O)=C(C(N)=O)C(=O)[C@@]3(O)C(O)=C1C2=O` [Tigecycline], the “IC50 for enzyme activities, WT” value (WT IDH1) was “n.p”.
